The structures appear in SMILES notation.

Data set [1] concerns STAT3, smad3, TGF1β-induced alpha-SMA and fibronectin. Kind of data set: Immunoblot comparison of FJU-C28 with Pirfenidone. The following applies: versus Pirfenidone; FIGS. 10A-10C. It counts as cell-based. The method, then: Further, a comparison between FJU-C28 and FDA-approved drug Pirfenidone for effects on STAT3 inhibition, smad3 activation, TGF1β-induced alpha-SMA and fibronectin expression are conducted. The results are shown in the quantitative immunoblot data in FIGS. 10A, 10B and 10C.
A general note: In western blotting, separated proteins are transferred to a membrane and probed.

The subject of data set [2] is RAW264.7 macrophages. Nature of the data set: Western blotting of LPS-stimulated macrophage lysates. It counts as cell-based, mouse. An excerpt:
In brief, cell lysate was separated by 10% SDS-PAGE and transferred to a PVDF membrane (Hybond™-P, Amersham, Piscataway, NJ, USA). The blots were probed with anti-p38 (Catalogue Number: 8690P), anti-p-p38 (Thr180/Tyr182; Catalogue Number: 4511P), anti-ERK44/42 (Catalogue Number: 4695P), anti-p-ERK44/42 (Thr202/Tyr204; Catalogue Number: 4370P), anti-JNK (Catalogue Number: 9258P), anti-p-JNK (Thr183/Tyr185; Catalogue Number: 4668P), anti-p65 (Catalogue Number: 8242S), anti-STAT3 (Catalogue Number: 12640S), anti-p-STAT3 (Tyr705; Catalogue Number: 9145S) and anti-RANTES (Catalogue Number: 2989S) antibodies were provided by Cell Signaling Technology, Inc. (Danvers, MA, USA). Anti-Lamin A/C (Catalogue Number: 101127) antibodies were obtained from GeneTex, Inc. (San Antonio, TX, USA). Anti-β-Actin (Catalogue Number: SC-47778) and anti-COX2 (Catalogue Number: SC-1746) antibody was obtained from Santa Cruz Biotechnology, Inc. (Dallas, Texas, USA). The anti-iNOS (Catalog Number: 610329) antibody was obtained from BD transduction Lab. (San Jose, CA, USA). Bound antibodies were visualized by […] staining (Western Lighting Plus ECL; PerkinElmer, Wellesley, MA, USA) with autoradiography using FUJI Medical X-ray film (Fuji Corporation, Kofu, Yamanashi, Japan) or a MultiGel-21 multifunctional imaging system (TOPBIO, New Taipei, Taiwan). The intensity of the western blot bands was quantified by ImageJ software. The quantitative immunoblot data were normalized to the internal control protein and are expressed as the relative ratio of the treatment group to the control. The data represent the mean±S.D. of at least three independent experiments.

Data set [3] concerns C57BL/6 mice with LPS-induced systemic inflammation. Kind of data set: Histological examination of lung specimens (H&E). It counts as in vivo, mouse. The following applies: FJU-C28 5 mg/kg, LPS 7.5 mg/kg, FIG. 12A. Here is the method: Ten-week-old male C57BL/6 mice from BioLasco Taiwan Co., Ltd. (Taipei, Taiwan) were used in the present study. The mice were maintained under standard laboratory conditions as described in a previous study.^34 All animal procedures were approved by the Institutional Animal Care and Use Committee of Fu Jen Catholic University (IACUC approval number: A10508). We also confirmed that all experiments were performed in compliance with the ARRIVE guidelines. All surgeries were performed under anesthesia, and all efforts were made to minimize the pain and discomfort of the animals. The mice were randomly assigned to three groups: control (n=7), LPS (n=7) and LPS plus C28 (n=8). […] The detailed procedure was performed as described in a previous study.^34 The lung function values, including C chord (lung compliance), IC (inspiratory capacity), VC (vital capacity), FEV100 (forced expiratory volume at 100 ms) and FVC (forced vital capacity), were measured using a Buxco Research System. […]
To evaluate the protective effect of FJU-C28 on lung function in mice with systemic inflammation induced by endotoxin, male C57BL/6 mice were administered LPS (7.5 mg/kg) and treated with/without FJU-C28 (5 mg/kg) for 24 hours; subsequently, lung function parameters were measured using a Buxco pulmonary function test system. […]

In data set [4] the test system is RAW264.7 macrophages. Kind of data set: Analysis of cell viability (MTT assay). The data set is classed as cell-based, mouse. The following applies: FIG. 1B. The method, then: RAW264.7 cells (mouse monocyte/macrophage-like cells) were purchased from the Bioresource Collection and Research Center (Hsinchu, Taiwan). The cells were maintained in DMEM (HyClone, Logan, UT, USA) containing 10% fetal bovine serum (HyClone), MEM nonessential amino acids (HyClone), […] sodium pyruvate (HyClone), and penicillin/streptomycin (HyClone). The cells were incubated at 37° C. in a humidified atmosphere of 5% CO2 and 95% air. RAW264.7 macrophages were pretreated with FJU-Cs (0 to 10 μM) as indicated for 30 min and were then stimulated with/without LPS (100 ng/ml) for 24 h. The remaining cells were evaluated by a 3-(4,5-dimethylthiazol-2-yl)-2,5-diphenyl tetrazolium bromide (MTT) assay. Cells containing formazan crystals were dissolved in DMSO (Merck, Darmstadt, Germany) and quantified at a wavelength of 595 nm using a spectrophotometer (BioTek Instruments, Inc. Winooski, Vermont, USA). Each experiment was repeated at least 3 times.
(In general: Tetrazolium dyes change colour on reduction, which living cells bring about.)

Setting [5] is: LPS-stimulated, at doses higher than 5 μM, FIG. 1D.

With `C=CCC1CC(Sc2ccccc2)=CC(=O)N1C(=O)C=C` (centres unmarked) [FJU-C28], in data set [1], the “inhibition of STAT3” value is given as “more significant than that of Pirfenidone”, the “inhibition of TGF1β-induced alpha-SMA expression” value is listed as “more significant than that of Pirfenidone”, the “inhibition of TGF1β-induced fibronectin expression” value was “more significant than that of Pirfenidone” and the “inhibition of smad3” value is “more significant than that of Pirfenidone”. In addition, in the data set with RAW264.7 macrophages [2] (5 μM and 10 μM, FIG. 6A), the “LPS-induced level of p-ERK” value was “dramatically inhibited”, the “LPS-induced level of p-JNK” value is “dramatically inhibited” and the “LPS-induced level of p-p38” value is “dramatically inhibited”. Also, the “levels of STAT3 protein” value in the data set with RAW264.7 macrophages [2] (FIG. 8) is “reducing the levels of STAT3 protein”. For the same compound, in the data set with RAW264.7 macrophages [2] (LPS-induced RAW264.7, FIG. 6D), the “LPS-induced phosphorylation of STAT3” value is listed as “concentration-dependently inhibited”. In the data set with RAW264.7 macrophages [2] (setting [5]), the “expression of COX2 (immunoblot)” value is “suppressed” and the “expression of iNOS (immunoblot)” value is recorded as “suppressed”. Moreover, in the data set with RAW264.7 macrophages [2] (LPS-stimulated, increasing dose, FIG. 6C), the “NF-κB (p65) in nuclear extract (translocation)” value is recorded as “nuclear NF-κB (p65) was decreased”. Moreover, the “LPS-induced protein expression of RANTES (western blot)” value with RAW264.7 macrophages [2] (at 6 hours, FIG. 4B) is reported as “dramatically suppressed”. Moreover, in data set [3], the “alveolar structure in lung tissue” value is given as “sustained most of the alveolar structure” and the “neutrophil infiltration in the interstitium of the lung” value is reported as “reduced the neutrophil infiltration in the interstitium”. For the same compound, the cytotoxicity entry in the data set with RAW264.7 macrophages [4] (compared with 10 μM FJU-C4, 24 hours) was “less cytotoxicity than 10 μM FJU-C4”. The LPS-induced cell death result in the data set with RAW264.7 macrophages [4] (pretreated 30 min, then LPS 24 hours) is “protected RAW264.7 macrophages from LPS-induced cell death”.

The values above are taken from patent US20250041282A1, “METHOD FOR TREATING INFLAMMATORY PULMONARY DISEASE” (FU JEN CATHOLIC UNIVERSITY, priority 2021, published 2025).
